According to article PMC10600239, “Selective MCL-1 inhibitor ABBV-467 is efficacious in tumor models but is associated with cardiac troponin increases in patients” (Communications Medicine, 2023):
“And” between values parts separate entries of the source, which are not always exact repeats. Equal entries are not always repeated.

Tested on: AMO-1 xenografts
Assay: AMO-1 xenograft efficacy (tumor volume, body weight)
Format: in vivo, mouse
Description: All animal studies were conducted in accordance with the guidelines approved by the Institutional Animal Care and Use Committees of AbbVie. The research protocol was approved by In Vivo Pharmacology at AbbVie prior to study initiation but was not publicly registered or disclosed. Female C.B-17 SCID-beige mice (AMO-1, OPM-2, NCI-H929, and OCI-AML2 xenografts) and female NSG mice (MV4-11-Red.Fluc systemic) were purchased from Charles River Laboratories (Wilmington, MA). Animals were housed in a light cycle-controlled room with HEPA filtration at 22 °C. Animals had nesting and climbing cage topper as the primary environmental enrichment. Animals were inoculated subcutaneously in the right flank with 5 × 10^6 (AMO-1, OPM-2, NCI-H929, and OCI-AML2) or intravenous (IV) with 5 × 10^6 (MV4-11-Red.Fluc). The inoculation volume (0.2 mL) comprised a 50:50 mixture of cells in growth media and Matrigel (BD Biosciences) for subcutaneous injections and 100% phosphate-buffered saline for IV administration. All cell lines used in this publication were authenticated using IDEXX for STR profiling as well as their IMPACT and human IMPACT panels for pathogen screening. Electronic calipers were used to measure the length and width of each tumor 2 to 3 times per week. Tumor volume was estimated by applying the following equation: volume = length × width^2/2. All groups remained blinded during measurements and dosing; only veterinary staff were aware of group identity. When tumors reached approximately 200 mm^3, mice were randomized by match and distributed into treatment and control groups. All xenograft trials were conducted using 5 to 10 mice per group, and all mice were ear tagged and monitored individually throughout the studies. […] Tumor burden in the systemic MV4-11-Red.Fluc experiment was measured using an IVIS® spectrum from PerkinElmer by taking the total photon flux of the entire dorsal side of an individual mouse. […] A background control mouse that was tumor naive but received D-Luciferin was placed in the upper left corner of each image. The total flux from this animal was subtracted from the total flux of each animal present in the image.
For in vivo studies, maximal tumor growth inhibition (TGI) was calculated as the greatest treatment response using the following equation: Maximal TGI = (1 − mean tumor volume of the treated group/mean tumor volume of the vehicle control group) × 100. The tumor growth delay (TGD) percentage was determined as the percentage increase of the median time period for the treatment group to reach an arbitrary tumor volume of 1000 mm^3 relative to the vehicle control group. […] A power analysis was conducted using historical data to determine the number of animals required to yield significance of 0.05 at a 30% difference. […] Data from experiments in vivo were analyzed using the student’s t-test for TGI values and the Mann–Whitney U test for TGD using Excel and GraphPad Prism. Fisher’s exact test was used to probe significance of differences in response frequency.

[1] = 6.25 mg/kg Q7Dx2 IV, SCID-beige female mice, Day 26
[2] = 6.25 mg/kg Q7Dx2 IV, SCID-beige female mice, Day 28
[3] = 6.25 mg/kg Q7Dx2 IV, SCID-beige mice, Day 13 (measure date 10/25/2017, dosing begin 10/26/2017)
[4] = 6.25 mg/kg QDx1 IV, Day 26, n=8
[5] = 6.25 mg/kg QDx1 IV, Day 28, n=8
[6] = 6.25 mg/kg QDx1 IV, SCID-beige mice, Day 21
[7] = 6.25 mg/kg QDx1 IV, SCID-beige mice, Day 23
[8] = 6.25 mg/kg QDx1 IV, SCID-beige mice, Day 23, mean(T)/mean(C)
[9] = 6.25 mg/kg QDx1 IV, SCID-beige mice, Day 23, median(T)/median(C)

## Cc1c(Cl)c2c(Cl)c(C)c1-c1c(-c3ccc(F)cc3)sc3ncnc(c13)O[C@@H](C(=O)O)Cc1cc(ccc1OCc1ccnc(-c3ccc(OC[C@H]4COCCO4)cc3)n1)OC[C@@H](CN1CCN(C)CC1)O2 [Compound A-1747745.0]
6.25 mg/kg Q7Dx2 IV, SCID-beige female mice, Day 24
  Xenograft AMO-1 (DSMZ) tumor volume Day 24, Median: 183.76 mm³
[1]
  Xenograft AMO-1 (DSMZ) tumor volume Day 26, Mean: 300.68 mm³
  Xenograft AMO-1 (DSMZ) tumor volume Day 26, Median: 173.91 mm³
  Xenograft AMO-1 (DSMZ) tumor volume Day 26, individual animals: 165 mm³ and 890 mm³ and 293 mm³ and 308 mm³ and 143 mm³ and 174 mm³ and 132 mm³
[2]
  Xenograft AMO-1 (DSMZ) (mm³) Day 28, individual animals: 242 mm³ and 1605 mm³ and 585 mm³ and 510 mm³ and 266 mm³ and 306 mm³ and 32 mm³
  Xenograft AMO-1 (DSMZ) Day 28 Mean: 506.48 mm³
  Xenograft AMO-1 (DSMZ) Day 28 Median: 305.62 mm³
[3]
  Xenograft AMO-1 (DSMZ) tumor volume Day 13, Mean: 222.44 mm³
  Xenograft AMO-1 (DSMZ) tumor volume Day 13, Median: 219.48 mm³
  Xenograft AMO-1 (DSMZ) tumor volume Day 13, individual animals: 230 mm³ and 206 mm³ and 247 mm³ and 219 mm³ (2×) and 232 mm³ and 204 mm³
6.25 mg/kg Q7Dx2 IV, group mean tumor volume, Day 32
  Xenograft AMO-1 (DSMZ) (mm³) Day 32 Mean: 1661.51 mm³
6.25 mg/kg Q7Dx2 IV, group median tumor volume, Day 32
  Xenograft AMO-1 (DSMZ) (mm³) Day 32 Median: 1251.91 mm³
6.25 mg/kg Q7Dx2 IV, individual animal tumor volume, Day 32
  Xenograft AMO-1 (DSMZ) (mm³) Day 32: 1252 mm³ and 3313 mm³ and 2126 mm³ and 1223 mm³ and 2463 mm³ and 1036 mm³ and 218 mm³
[4]
  Xenograft AMO-1 (DSMZ) tumor volume Day 26, Mean: 454.97 mm³
  Xenograft AMO-1 (DSMZ) tumor volume Day 26, Median: 392.97 mm³
6.25 mg/kg QDx1 IV, Day 26, mean(T)/mean(C)
  % T/C (mean) tumor volume Day 26: 28.88%
6.25 mg/kg QDx1 IV, Day 26, median(T)/median(C)
  % T/C (median) tumor volume Day 26: 24.60%
[5]
  Xenograft AMO-1 (DSMZ) tumor volume Day 28, Mean: 690.68 mm³
  Xenograft AMO-1 (DSMZ) tumor volume Day 28, Median: 578.26 mm³
6.25 mg/kg QDx1 IV, Day 28, mean(T)/mean(C)
  % T/C (mean) tumor volume Day 28: 33.71%
6.25 mg/kg QDx1 IV, Day 28, median(T)/median(C)
  % T/C (median) tumor volume Day 28: 29.98%
6.25 mg/kg QDx1 IV, SCID-beige female mice, Day 26
  Xenograft AMO-1 (DSMZ) tumor volume Day 26, individual animals: 386 mm³ and 701 mm³ and 245 mm³ and 206 mm³ and 598 mm³ and 235 mm³ and 868 mm³ and 400 mm³
6.25 mg/kg QDx1 IV, SCID-beige female mice, Day 28
  Xenograft AMO-1 (DSMZ) tumor volume Day 28, individual animals: 518 mm³ and 1122 mm³ and 542 mm³ and 307 mm³ and 666 mm³ and 511 mm³ and 1246 mm³ and 614 mm³
[6]
  Xenograft AMO-1 (DSMZ) Day 21, Mean: 175.92 mm³
  Xenograft AMO-1 (DSMZ) Day 21, Median: 202.13 mm³
6.25 mg/kg QDx1 IV, SCID-beige mice, Day 21, individual tumor volumes
  Xenograft AMO-1 (DSMZ) (mm³) Day 21, individual animals: 202 mm³ (2×) and 236 mm³ and 49 mm³ and 84 mm³ and 144 mm³ and 230 mm³ and 260 mm³
6.25 mg/kg QDx1 IV, SCID-beige mice, Day 21, mean(T)/mean(C)
  % T/C (mean), Tumor Volume Day 21: 27.52%
6.25 mg/kg QDx1 IV, SCID-beige mice, Day 21, median(T)/median(C)
  % T/C (median), Tumor Volume Day 21: 38.38%
[7]
  Xenograft AMO-1 (DSMZ) Day 23 Mean: 218.85 mm³
  Xenograft AMO-1 (DSMZ) Day 23 Median: 225.89 mm³
6.25 mg/kg QDx1 IV, SCID-beige mice, Day 23, individual tumor volumes
  Xenograft AMO-1 (DSMZ) (mm³) Day 23, individual animals: 209 mm³ and 282 mm³ and 56 mm³ and 156 mm³ and 155 mm³ and 243 mm³ and 349 mm³ and 301 mm³
[8]
  % T/C (mean), body weight Day 23: 103.53%
  % T/C (mean), tumor volume Day 23: 20.49%
[9]
  % T/C (median), body weight Day 23: 103.53%
  % T/C (median), tumor volume Day 23: 23.21%
6.25 mg/kg QDx1 IV, Day 30, SCID-beige female mice, tumor volume per animal
  Xenograft AMO-1 (DSMZ) (mm³) Day 30 (individual animals): 694 mm³ and 1347 mm³ and 555 mm³ and 384 mm³ and 801 mm³ and 782 mm³ and 1535 mm³ and 959 mm³
6.25 mg/kg QDx1 IV, Day 30, group mean
  Xenograft AMO-1 (DSMZ) (mm³) Day 30 Mean: 882.20 mm³
6.25 mg/kg QDx1 IV, Day 30, group median
  Xenograft AMO-1 (DSMZ) (mm³) Day 30 Median: 791.67 mm³
6.25 mg/kg QDx1 IV, Day 34, SCID-beige female mice, tumor volume per animal
  Xenograft AMO-1 (DSMZ) (mm³) Day 34 (individual animals): 2680 mm³ and 1975 mm³ and 1296 mm³ and 886 mm³ and 1388 mm³ and 1259 mm³ and 1718 mm³ and 1542 mm³
